Data as given in ChEMBL document CHEMBL1201862, “PubChem BioAssay data set” (2004).
The source made the active and inactive calls.

What was measured:
[1] = target: T1, Sentrin-specific protease 7 (Homo sapiens, UniProt Q9BQF6); type: functional;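 note: Luminescence-based dose-response confirmation of ultra-high-throughput screening hits, measuring inhibition of SENP7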
T1 sequence (Q9BQF6 whole entry): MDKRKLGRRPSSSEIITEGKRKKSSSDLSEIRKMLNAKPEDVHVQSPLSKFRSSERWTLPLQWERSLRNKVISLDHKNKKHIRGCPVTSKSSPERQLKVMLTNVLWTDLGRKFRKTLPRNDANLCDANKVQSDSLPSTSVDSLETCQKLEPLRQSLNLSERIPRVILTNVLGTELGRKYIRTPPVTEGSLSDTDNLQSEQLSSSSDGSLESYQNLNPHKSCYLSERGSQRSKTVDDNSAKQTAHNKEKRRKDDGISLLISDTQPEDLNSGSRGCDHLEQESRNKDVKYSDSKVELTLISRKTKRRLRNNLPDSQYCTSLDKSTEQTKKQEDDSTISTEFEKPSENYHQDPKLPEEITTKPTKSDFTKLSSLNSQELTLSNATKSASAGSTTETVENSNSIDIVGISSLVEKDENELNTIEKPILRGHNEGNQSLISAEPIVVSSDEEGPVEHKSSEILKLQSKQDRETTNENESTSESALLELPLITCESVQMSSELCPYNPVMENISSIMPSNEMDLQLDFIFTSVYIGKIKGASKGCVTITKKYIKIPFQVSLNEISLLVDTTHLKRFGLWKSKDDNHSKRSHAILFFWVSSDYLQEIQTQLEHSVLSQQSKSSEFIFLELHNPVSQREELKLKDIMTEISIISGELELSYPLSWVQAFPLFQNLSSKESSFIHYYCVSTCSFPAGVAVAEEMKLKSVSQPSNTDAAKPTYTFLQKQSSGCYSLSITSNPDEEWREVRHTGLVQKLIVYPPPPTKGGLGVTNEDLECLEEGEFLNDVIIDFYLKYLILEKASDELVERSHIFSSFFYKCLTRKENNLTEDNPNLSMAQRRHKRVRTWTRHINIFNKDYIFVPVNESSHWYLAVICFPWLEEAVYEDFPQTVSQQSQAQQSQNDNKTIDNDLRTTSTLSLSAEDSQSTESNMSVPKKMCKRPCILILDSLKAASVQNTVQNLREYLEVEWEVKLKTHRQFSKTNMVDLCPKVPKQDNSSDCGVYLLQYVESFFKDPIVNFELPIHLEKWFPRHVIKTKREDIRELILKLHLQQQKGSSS

[2] = target: T2, Sentrin-specific protease 6 (Homo sapiens, UniProt Q9GZR1); type: functional;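 note: Luminescence-based dose-response confirmatory assay of SENP6 inhibition, following up an ultra-high-throughput screen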
T2 sequence (Q9GZR1 whole entry): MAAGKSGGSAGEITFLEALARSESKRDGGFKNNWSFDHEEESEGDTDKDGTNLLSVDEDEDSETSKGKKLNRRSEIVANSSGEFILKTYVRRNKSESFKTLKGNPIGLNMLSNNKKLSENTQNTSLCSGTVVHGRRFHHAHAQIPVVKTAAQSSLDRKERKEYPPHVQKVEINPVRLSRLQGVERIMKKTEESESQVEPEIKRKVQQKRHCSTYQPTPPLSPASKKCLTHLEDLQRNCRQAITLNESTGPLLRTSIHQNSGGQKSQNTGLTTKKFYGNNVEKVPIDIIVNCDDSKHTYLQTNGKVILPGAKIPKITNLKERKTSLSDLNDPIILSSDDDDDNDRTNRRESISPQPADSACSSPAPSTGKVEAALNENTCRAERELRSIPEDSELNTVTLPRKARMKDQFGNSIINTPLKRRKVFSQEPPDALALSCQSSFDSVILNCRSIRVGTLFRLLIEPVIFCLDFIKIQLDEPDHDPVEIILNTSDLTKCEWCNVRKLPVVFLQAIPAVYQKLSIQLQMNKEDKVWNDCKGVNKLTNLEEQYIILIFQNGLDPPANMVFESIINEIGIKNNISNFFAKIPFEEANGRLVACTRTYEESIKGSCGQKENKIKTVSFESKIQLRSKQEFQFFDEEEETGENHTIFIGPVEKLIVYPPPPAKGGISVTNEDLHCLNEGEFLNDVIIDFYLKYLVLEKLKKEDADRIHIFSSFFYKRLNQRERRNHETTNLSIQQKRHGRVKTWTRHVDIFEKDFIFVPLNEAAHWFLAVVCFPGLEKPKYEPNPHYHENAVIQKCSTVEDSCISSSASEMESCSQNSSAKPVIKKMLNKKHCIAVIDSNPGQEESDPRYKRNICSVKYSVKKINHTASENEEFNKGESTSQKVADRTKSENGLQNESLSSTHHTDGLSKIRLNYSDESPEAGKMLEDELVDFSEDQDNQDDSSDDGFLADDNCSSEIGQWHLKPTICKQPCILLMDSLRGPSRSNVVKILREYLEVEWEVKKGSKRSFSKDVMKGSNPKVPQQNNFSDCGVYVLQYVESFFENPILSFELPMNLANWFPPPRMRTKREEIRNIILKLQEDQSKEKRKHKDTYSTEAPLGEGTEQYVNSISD

Caspase-3 = target: T3, Caspase-3 (Homo sapiens, UniProt P42574); type: functional;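 note: Dose-response selectivity test against caspase-3 for candidate inhibitors of sentrin-specific proteases (SENPs)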
T3 sequence (P42574 whole entry): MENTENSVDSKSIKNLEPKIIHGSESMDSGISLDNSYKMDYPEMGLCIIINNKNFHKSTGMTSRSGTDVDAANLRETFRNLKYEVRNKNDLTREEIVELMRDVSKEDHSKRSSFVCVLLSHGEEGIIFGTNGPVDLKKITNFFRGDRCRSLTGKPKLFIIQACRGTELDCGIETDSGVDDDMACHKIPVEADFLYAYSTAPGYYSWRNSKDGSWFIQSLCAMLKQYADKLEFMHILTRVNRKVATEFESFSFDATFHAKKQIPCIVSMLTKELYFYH

[3] = target: T4, Sentrin-specific protease 8 (Homo sapiens, UniProt Q96LD8); type: functional;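 note: luminescence read-out of SENP8 inhibition, dose-response confirmation following an ultra-high-throughput screen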
T4 sequence (Q96LD8 whole entry): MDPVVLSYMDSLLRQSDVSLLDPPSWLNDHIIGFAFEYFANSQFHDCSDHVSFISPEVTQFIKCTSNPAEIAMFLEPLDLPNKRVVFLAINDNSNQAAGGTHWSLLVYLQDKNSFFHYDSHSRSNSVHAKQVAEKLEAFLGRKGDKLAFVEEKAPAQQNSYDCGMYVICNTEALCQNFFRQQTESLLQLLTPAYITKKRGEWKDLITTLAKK

[4] = target: T5, Polyadenylate-binding protein 1 (Homo sapiens, UniProt P11940); assay: PABP1 MLLE–PAM2 binding inhibitor potency, dose response, biochemical, fluorescence polarization, FITC-PAM2 peptide (AID 602259); type: functional; settings: read-out: IC50_Mean
T5 sequence (P11940 whole entry): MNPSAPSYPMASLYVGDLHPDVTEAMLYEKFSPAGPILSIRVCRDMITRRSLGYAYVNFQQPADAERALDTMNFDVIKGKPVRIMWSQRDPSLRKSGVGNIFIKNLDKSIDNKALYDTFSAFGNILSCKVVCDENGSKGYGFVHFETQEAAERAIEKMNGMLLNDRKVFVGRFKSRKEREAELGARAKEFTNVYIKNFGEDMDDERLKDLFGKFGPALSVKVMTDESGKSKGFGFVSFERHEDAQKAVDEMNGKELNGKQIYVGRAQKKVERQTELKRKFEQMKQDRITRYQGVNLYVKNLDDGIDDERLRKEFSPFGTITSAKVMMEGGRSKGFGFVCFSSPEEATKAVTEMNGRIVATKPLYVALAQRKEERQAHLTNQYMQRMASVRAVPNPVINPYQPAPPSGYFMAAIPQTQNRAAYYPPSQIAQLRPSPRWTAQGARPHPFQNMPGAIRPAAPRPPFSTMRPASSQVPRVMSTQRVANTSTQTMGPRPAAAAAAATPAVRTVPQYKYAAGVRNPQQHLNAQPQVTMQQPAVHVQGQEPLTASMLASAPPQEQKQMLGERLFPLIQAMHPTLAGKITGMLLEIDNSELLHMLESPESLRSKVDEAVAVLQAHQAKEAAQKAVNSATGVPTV

[5] = target: T5, Polyadenylate-binding protein 1; assay: PABP1 MLLE–PAM2 interaction inhibitors, dose response, miRNA deadenylation inhibitor project, biochemical, fluorescence polarization, Cy5-PAM2 peptide, secondary (AID 602260); type: functional; settings: read-out: IC50_Mean
[6] = target: T6, Mitochondrial peptide methionine sulfoxide reductase (Bos taurus, UniProt P54149); assay: Absorbance-based biochemical high throughput dose response assay for activators of Methionine sulfoxide reductase A (MsrA).; type: functional
T6 sequence (P54149 whole entry): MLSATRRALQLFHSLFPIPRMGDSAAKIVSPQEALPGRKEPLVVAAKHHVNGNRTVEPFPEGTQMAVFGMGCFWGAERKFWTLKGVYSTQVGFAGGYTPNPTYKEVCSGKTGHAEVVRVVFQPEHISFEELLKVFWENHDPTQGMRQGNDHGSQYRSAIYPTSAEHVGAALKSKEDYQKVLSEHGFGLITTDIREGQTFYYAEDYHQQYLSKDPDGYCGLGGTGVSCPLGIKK

[7] = target: T7, Endoribonuclease toxin MazF (Escherichia coli K-12, UniProt P0AE70); assay: MazF toxin RNase activators, dose response, biochemical, fluorescence, single-stranded RNA substrate, uHTS hits (AID 588481); type: functional
T7 sequence (P0AE70 whole entry): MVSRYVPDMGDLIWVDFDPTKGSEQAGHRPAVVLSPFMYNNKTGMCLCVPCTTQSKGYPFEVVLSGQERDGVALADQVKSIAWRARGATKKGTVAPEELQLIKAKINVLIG

[8] = target: T7, Endoribonuclease toxin MazF; assay: fluorescent RNA oligo signal without MazF, dose response, counter-screen for MazEF activator project, biochemical, fluorescence, single-stranded RNase substrate (AID 588502); type: functional
[9] = cytotoxicity toward NIH3T3 fibroblasts, dose response, counter-screen, cell-based, ATP luminescence, mouse fibroblasts (AID 2010); type: functional;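 note: cells exposed to compound for about 90 hours before reading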
cells = type: functional
[10] = inhibitors of intracellular T. cruzi replication, confirmation, NIH3T3 host cells, beta-gal luminescence (AID 2044); type: functional, cell-based;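 note: intracellular parasites grown in NIH/3T3 mouse fibroblasts as host cells; luminescent beta-galactosidase reporter signal from transgenic T. cruzi replicating inside host cells; inhibitors lower the luminescence signal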
[11] = target: Delta-type opioid receptor (Homo sapiens, UniProt P41143); assay: Counterscreen for agonists of heterodimerization of the mu 1 (OPRM1) and delta 1 (OPRD1) opioid receptors: Luminescence-based cell-based high throughput dose response assay to identify agonists of OPRD1 homodimerization. [Related pubchem assays (depositor defined):AID504326, AID504355, AID504692, AID504904, AID504905]; type: functional
Delta-type opioid receptor, sequence (P41143 whole entry): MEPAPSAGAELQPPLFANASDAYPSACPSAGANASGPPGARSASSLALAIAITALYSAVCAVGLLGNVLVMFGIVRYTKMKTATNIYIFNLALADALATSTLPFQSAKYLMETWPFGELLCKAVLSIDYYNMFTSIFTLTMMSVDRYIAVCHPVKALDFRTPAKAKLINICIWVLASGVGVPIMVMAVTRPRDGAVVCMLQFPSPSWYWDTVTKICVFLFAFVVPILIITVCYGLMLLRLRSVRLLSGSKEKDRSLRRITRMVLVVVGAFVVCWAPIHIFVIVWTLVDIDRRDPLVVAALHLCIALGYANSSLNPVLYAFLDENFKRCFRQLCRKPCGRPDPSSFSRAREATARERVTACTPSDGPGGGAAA

[12] = target: 5-hydroxytryptamine receptor 5A (Homo sapiens, UniProt P47898); assay: Counterscreen for agonists of OPRM1-OPRD1 heterodimerization: luminescence-based cell-based high throughput dose response assay to identify agonists of 5-hydroxytryptamine (serotonin) 5A receptor (HTR5A). [Related pubchem assays (depositor defined):AID504326, AID504355, AID504692, AID504904, AID504905]; type: functional
5-hydroxytryptamine receptor 5A, sequence (P47898 whole entry): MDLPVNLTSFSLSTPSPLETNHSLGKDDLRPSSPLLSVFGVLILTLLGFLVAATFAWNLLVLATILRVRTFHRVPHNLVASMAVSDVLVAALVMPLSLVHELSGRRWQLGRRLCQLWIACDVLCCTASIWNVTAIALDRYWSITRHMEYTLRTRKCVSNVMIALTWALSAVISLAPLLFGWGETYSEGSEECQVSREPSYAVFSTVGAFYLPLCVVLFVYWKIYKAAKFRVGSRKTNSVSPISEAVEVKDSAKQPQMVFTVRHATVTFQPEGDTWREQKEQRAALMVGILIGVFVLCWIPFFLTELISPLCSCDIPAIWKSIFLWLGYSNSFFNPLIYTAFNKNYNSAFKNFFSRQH

[13] = target: T8, Short transient receptor potential channel 4 (Mus musculus, UniProt Q9QUQ5); assay: mouse TRPC4 channel activators, dose response, cell-based, HEK293 TRPC4/mu-opioid, Fluo-4 calcium (AID 434937); type: functional
T8 sequence (Q9QUQ5 whole entry): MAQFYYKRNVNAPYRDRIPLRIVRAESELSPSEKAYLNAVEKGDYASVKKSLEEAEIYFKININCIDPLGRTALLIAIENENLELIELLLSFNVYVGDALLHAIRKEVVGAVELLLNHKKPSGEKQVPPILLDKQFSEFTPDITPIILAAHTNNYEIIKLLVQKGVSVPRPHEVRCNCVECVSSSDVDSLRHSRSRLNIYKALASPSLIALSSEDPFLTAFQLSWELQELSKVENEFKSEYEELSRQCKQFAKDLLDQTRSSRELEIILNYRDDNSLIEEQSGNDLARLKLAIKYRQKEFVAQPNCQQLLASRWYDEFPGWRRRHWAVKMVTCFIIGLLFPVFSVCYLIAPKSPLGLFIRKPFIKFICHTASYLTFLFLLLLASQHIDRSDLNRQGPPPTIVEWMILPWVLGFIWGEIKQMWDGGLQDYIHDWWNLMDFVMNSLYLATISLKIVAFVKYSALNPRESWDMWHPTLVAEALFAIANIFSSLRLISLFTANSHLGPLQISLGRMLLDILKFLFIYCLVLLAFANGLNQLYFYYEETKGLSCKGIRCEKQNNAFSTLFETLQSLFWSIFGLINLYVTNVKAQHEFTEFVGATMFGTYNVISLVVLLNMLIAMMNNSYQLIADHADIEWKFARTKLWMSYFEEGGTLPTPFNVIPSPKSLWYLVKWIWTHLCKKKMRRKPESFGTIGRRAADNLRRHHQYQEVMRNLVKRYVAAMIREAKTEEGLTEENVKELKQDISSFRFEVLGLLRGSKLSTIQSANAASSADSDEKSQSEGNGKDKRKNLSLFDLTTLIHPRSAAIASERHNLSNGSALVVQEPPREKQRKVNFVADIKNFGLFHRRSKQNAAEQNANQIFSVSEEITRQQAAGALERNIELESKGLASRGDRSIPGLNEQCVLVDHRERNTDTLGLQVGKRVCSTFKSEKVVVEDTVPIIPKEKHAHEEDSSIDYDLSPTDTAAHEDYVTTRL

Mu-type opioid receptor = Mu-type opioid receptor (Homo sapiens, UniProt P35372); assay: Counterscreen for agonists of heterodimerization of the mu 1 (OPRM1) and delta 1 (OPRD1) opioid receptors: Luminescence-based cell-based high throughput dose response assay to identify agonists of OPRM1 homodimerization.; type: functional;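 note: U2OS cells expressing OPRM1 and beta-arrestin as split beta-galactosidase partners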
Mu-type opioid receptor, sequence (P35372 whole entry): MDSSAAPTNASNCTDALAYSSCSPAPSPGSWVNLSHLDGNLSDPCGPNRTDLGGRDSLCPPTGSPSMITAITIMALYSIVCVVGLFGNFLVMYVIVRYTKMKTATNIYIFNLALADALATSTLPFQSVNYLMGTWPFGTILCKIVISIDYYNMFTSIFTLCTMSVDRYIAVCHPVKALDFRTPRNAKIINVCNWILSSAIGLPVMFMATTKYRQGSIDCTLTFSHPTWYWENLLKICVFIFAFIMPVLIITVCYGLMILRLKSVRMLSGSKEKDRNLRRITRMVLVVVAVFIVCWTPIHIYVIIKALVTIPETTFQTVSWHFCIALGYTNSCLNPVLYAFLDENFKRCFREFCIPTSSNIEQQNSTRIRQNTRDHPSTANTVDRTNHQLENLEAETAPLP

Row | SMILES | IC50 [1] | IC50 [2] | IC50 (Caspase-3) | IC50 [3] | EC50 [7] | EC50 [8] | other results
1 | O=C(Nc1ccccc1)c1ccc(-c2ccccc2Cl)o1 | 4.47 µM (active) | > 100 µM (inactive) | 74.3 µM (active) | > 100 µM (inactive) |  |  | 
2 | COCc1cc(=O)[nH]c(=S)[nH]1 |  |  |  |  |  |  | IC50 [4]: > 66 µM (inactive); IC50 [5]: > 66 µM (inactive); EC50 [6]: > 104 µM (inactive)
3 | Brc1ccc(NN=Nc2ccccc2)cc1 | 4.66 µM (active) | 11.2 µM (active) | 27.1 µM (active) | 10.9 µM (active) |  |  | 
4 | CCCCC(=O)NNC(=S)NC(=O)c1ccc([N+](=O)[O-])cc1 |  |  |  |  |  |  | EC50 [6]: > 104 µM (inactive)
5 | COc1ccc(-c2cc(C)no2)cc1S(=O)(=O)N1CCOc2ccc(C)cc21 |  |  |  |  | > 99 µM (inactive) | > 99 µM (inactive) | 
6 | O=C(OCC(=O)N1CCC(c2ccccc2)=N1)c1ccc([N+](=O)[O-])s1 | 18.9 µM (active) | 7.19 µM (active) | 28.2 µM (active) | 5.92 µM (active) |  |  | EC50 [9]: > 30 µM (not active); IC50 (cells): 1.13 µM (active); EC50 [10]: 0.809 µM (active)
7 | COc1cccc(NC(=O)c2ccc(-c3ccc([N+](=O)[O-])cc3)o2)c1 |  |  |  |  | > 99 µM (inactive) | > 99 µM (inactive) | 
8 | CN(C)CCCN(C(=O)c1ccc(S(=O)(=O)N2CCc3ccccc3C2)cc1)c1nc2c(F)cc(F)cc2s1 |  |  |  |  |  |  | EC50 [11]: > 92.5 µM (inactive); EC50 [12]: > 92.5 µM (inactive); EC50 [13]: 1.19 µM (active); EC50 (Mu-type opioid receptor): 5.1 µM (active)
9 | CCc1cccc(C)c1N=C(S)NCC(c1cccnc1)N(C)C (stereo not drawn) |  |  |  |  |  |  | EC50 [11]: 79.4 µM (inactive); EC50 [12]: > 92.5 µM (inactive); EC50 [13]: 0.0467 µM (active); EC50 (Mu-type opioid receptor): > 92.5 µM (inactive)
10 | CCOC(=O)C1=C(C)N=c2s/c(=C/c3ccccc3)c(=O)n2C1c1ccc(OC)c(OC)c1 (stereo not drawn) |  |  |  |  | > 99 µM (inactive) | > 99 µM (inactive) | 
